The text below walks through data of patent US4462819A, “Urease inhibited urea based fertilizer compositions containing organo boron acid compounds” (Allied Corporation, priority 1983, dated 1984).

Experiment [1] has as its system urease. As to the kind of experiment: Evaluation of urease inhibiting activity in soil, Test A (test compound and urea applied together). The following applies: 800 μg test compound and 42.8 mg urea in 20 g air-dry soil (Cazenovia sandy loam pH 7.2), 25° C., 3 days; remaining urea, relative to control without test compound. Details: key: A=excellent inhibition; B=partial inhibition; C=no inhibition. The format is biochemical. The procedure: Certain selected organo boron acid compounds were evaluated for urease inhibiting activity. The tests were run in a New York soil (Cazenovia sandy loam pH 7.2). Test A evaluations (run in triplicate) consisted of applying 800 μg of test compound in 5 mL water and 42.8 mg urea in 1 mL water to 20 g air-dry soil in a glass bottle. The bottle was capped with perforated aluminum foil and incubated at 25° C. for 3 days prior to extraction with a 100 mL 2M KCL solution containing 0.5 mg phenylmercuric acetate. The extracts were then analyzed for remaining urea using an autoanalyzer.

For experiment [2], the system named is urease. Kind of experiment: Evaluation of urease inhibiting activity in soil, Test B (test compound incubated in soil 3 days before urea was added). The format is biochemical. Details: key: A=excellent inhibition; B=partial inhibition; C=no inhibition. The following applies: 800 μg test compound incubated in 20 g soil (Cazenovia sandy loam pH 7.2) for 3 days before urea was added; analysis 3 days after urea addition; relative to control without test compound.

As to `Nc1ccccc1B(O)O` [X, 2-Aminobenzeneboronic Acid], in experiment [1], the “% INHIBITION (TEST A)” value is on record as “C”. Also, the “% INHIBITION (TEST B)” value in experiment [2] is “A”.
As to `Nc1ccc(B(O)O)cc1` [XII, 4-Aminobenzeneboronic Acid], the “% INHIBITION (TEST A)” value in experiment [1] is listed as “B”. Besides, the “% INHIBITION (TEST B)” value in experiment [2] is “A”.
The like results for `Cl.ONc1ccccc1B(O)O` [XIII, 2-Hydroxylaminobenzeneboronic Acid Hydrochloride] were, in that order, “C” and “A”.
For `Cl.ONc1cccc(B(O)O)c1` [XIV, 3-Hydroxylaminobenzeneboronic Acid Hydrochloride], in experiment [1], the “% INHIBITION (TEST A)” value is recorded as “B”. Besides, the “% INHIBITION (TEST B)” value in experiment [2] is given as “B”.
As for `OB(O)c1cccc(O)c1` [XIX, 3-Hydroxybenzeneboronic Acid], the “% INHIBITION (TEST A)” value in experiment [1] was “B”. Also, in experiment [2], the “% INHIBITION (TEST B)” value is listed as “A”.
The like results for `Cl.ONc1ccc(B(O)O)cc1` [XV, 4-Hydroxylaminobenzeneboronic Acid Hydrochloride] were, in that order, “A” and “A”.
The like results for `NC(=O)Nc1cccc(B(O)O)c1` [XVI, 3-Ureidophenylboric Acid] were, in that order, “C” and “B”.
As for `OB1OCc2ccccc21` [XVII, Borphthalide], the “% INHIBITION (TEST A)” value in experiment [1] is reported as “C”. The “% INHIBITION (TEST B)” value in experiment [2] is listed as “A”.
For the molecule `OB1ON=Cc2ccccc21` [XVIII, 4-Hydroxy-4,3-boroxaroisoquinoline], the “% INHIBITION (TEST A)” value in experiment [1] is on record as “B”. Besides, in experiment [2], the “% INHIBITION (TEST B)” value was “B”.
